The values below come from PMC12436592 (Nature Communications, 2025).

Values joined by “and” are separate entries in the source; they are usually repeats but may differ in a detail not shown here. Equal values may be shown once.

For experiment [1], the target named is T1, hP2X7R (Homo sapiens, UniProt Q99572).
T1 sequence (Q99572 1-595): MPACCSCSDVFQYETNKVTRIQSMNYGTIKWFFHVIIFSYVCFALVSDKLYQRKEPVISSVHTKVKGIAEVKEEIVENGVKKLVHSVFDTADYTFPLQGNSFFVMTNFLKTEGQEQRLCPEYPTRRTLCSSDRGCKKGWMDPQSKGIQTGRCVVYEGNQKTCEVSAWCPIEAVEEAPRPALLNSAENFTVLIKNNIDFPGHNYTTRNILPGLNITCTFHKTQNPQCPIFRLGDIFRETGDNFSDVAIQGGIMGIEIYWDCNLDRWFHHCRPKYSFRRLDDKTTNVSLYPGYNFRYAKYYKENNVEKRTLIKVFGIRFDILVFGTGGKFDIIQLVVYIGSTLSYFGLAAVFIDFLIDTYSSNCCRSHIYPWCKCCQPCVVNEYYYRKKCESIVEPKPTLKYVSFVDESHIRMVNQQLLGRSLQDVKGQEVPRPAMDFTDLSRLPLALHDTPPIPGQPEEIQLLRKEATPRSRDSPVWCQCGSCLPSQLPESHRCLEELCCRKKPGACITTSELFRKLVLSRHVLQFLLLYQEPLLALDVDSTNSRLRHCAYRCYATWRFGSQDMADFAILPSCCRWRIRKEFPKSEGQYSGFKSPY
The experiment in a line: Ethidium bromide accumulation in hP2X7R-expressing HEK293 cells. Format: cell-based. To be noted: for mean % of maximum accumulation / MAX100 (% of maximum accumulation, replicates 1-3): BzATP 6 μM; for IC50: hP2X7R, ethidium bromide accumulation, mean ± SD, triplicate; for ΔΔGexp: relative to UB-ALT-P30, from experimental pIC50 values, T = 298 K; for MAX100 (% of maximum accumulation, replicates 1-3): single replicates. Also on record: expressed in transfected cells. The procedure:
Human P2X7R-expressing HEK293 cells were cultured in a humidified atmosphere of 5% CO2 at 37 °C in Dulbecco’s Modification of Eagle’s Medium (DMEM; Corning) supplemented with 10% (v/v) fetal bovine serum (Corning) and 1% (v/v) antibiotic–antimycotic (Gibco)[75]. To perform the assay, the DMEM was removed, and the HEK293 cells were washed with 3 mL of 1X DPBS (Dulbecco’s Phosphate-Buffered Saline; Corning). After the removal of DPBS solution, the cells were detached from the dish with 1 mL of trypsin/EDTA (Gibco), and the cells were collected by centrifugation. The cells (density of 2.25 × 10^7) were re-suspended in 4-(2-hydroxyethyl)-1-piperazineethanesulfonic acid (HEPES)-buffered salt solution consisting of 140 mM potassium chloride, 1 mM ethylene diamine tetraacetic acid (EDTA), 5 mM glucose, 20 mM HEPES, and 0.1 mM ethidium bromide (pH 7.4). The vehicles or appropriate range of concentrations of compounds (10 μL, pre-diluted in 10% (v/v) DMSO in DW from 10 mM stock) were added to each well of 96-well black plate (Corning), and 80 μL of the cell suspension was subsequently added to each well. BzATP (10 μL, pre-diluted in DW from 10 mM stock) was then added, and the final assay volume was maintained at 100 μL. After the incubation in 5% CO2 at 37 °C for 2 h, the ethidium dye uptake was detected by measuring the fluorescence (excitation wavelength of 530 nm and emission wavelength of 590 nm) of each well using a CHAMELEON™ Multi-Technology Plate Reader. The antagonistic activities of compounds are expressed as the percentages relative to the maximum accumulation of ethidium bromide observed in the control group with the stimulation of the hP2X7R by an agonist, BzATP. The IC50 values of compounds as antagonists were calculated using nonlinear regression analysis using OriginPro 9.1 software.

Experiment [2] has as its target T1, hP2X7R. The experiment in a line: TEVC determination of antagonist binding kinetics in Xenopus oocytes. In kind it is cell-based. Also on record: expressed in transfected cells; host or cells: Xenopus laevis oocytes injected with capped cRNA (modified pUC19 vector, T7). To be noted: single replicates. How it is done: Xenopus laevis frogs were from Nasco International (Fort Atkinson, WI) and kept at the Core Facility Animal Models (CAM) of the Biomedical Center (BMC) of LMU Munich, Germany (Az:4.3.2–5682/LMU/BMC/CAM) in accordance with the EU Animal Welfare Act. Ovaries were surgically extracted (ROB_54-011-AZ 2532.Vet_02-23-166), treated with collagenase (Nordmark, Uetersen, Germany 1.0–1.5 mg/mL, ≥2 at RT) and defolliculated (15-min treatment in Ca^2+-free oocyte Ringer (90 mM NaCl, 1 mM KCl, 2 mM MgCl2, 5 mM HEPES), respectively. 50 nL of cRNA (0.5 µg/µL) were injected using a Nanoject II injector (Science Products, Drummond) and oocytes were kept in ND96 (96 mM NaCl, 2 mM KCl, 1 mM MgCl2, 1 mM CaCl2, 5 mM HEPES, pH 7.4–7.5). The plasmid containing the hP2X7R was linearized with NotI-HF (NEB) and purified with the MinElute Reaction Cleanup Kit (Qiagen, Hilden, Germany). Capped cRNA was synthesized using the mMESSAGE mMACHINE™ T7 Transcription Kit (ThermoFisher Scientific, Schwerte, Germany) and dissolved in nuclease-free water (500 ng/µL). Injected oocytes were allowed to express for at least 36 hours.
Two-electrode voltage clamp recordings were performed at room temperature and a holding potential of −70 mV using a Turbo Tec-05X Amplifier (npi electronic, Tamm, Germany), a magnetic valve system, and CellWorks E 5.5.1 software. Currents were filtered at 1 kHz and digitized at 200 Hz. Electrode resistances were below 1.2 MΩ. […] Recordings were performed in ND96.
After obtaining reproducible agonist-evoked responses, solutions were switched to antagonist-containing recording solutions with and without ATP to determine association rates. Responses following antagonist application were normalized to the preceding, stabilized agonist responses. Dissociation was determined in 1- or 2 min intervals when currents were reduced to <10%. Association curves were fit to the data by the equation % Response = (100-Plateau)*exp(-kobs*Time) + Plateau, where Plateau indicates the response at equilibrium and kobs the experimentally determined on-rate. All data were analyzed using Prism software (GraphPad Software, Inc., Version 8.3.0, San Diego, CA) and are presented as means ± SD from at least three oocytes. […] The final concentration of DMSO in the recording solution was ≤1%.
Supplementary Fig. 10: Kinetics of ligands binding to the hP2X7R measured by TEVC. (A) […]
All data represented as mean ± S.D. with n=3, 7, 7, and 7 f or the experiments performed at 3 nM, 10 nM, 30 nM, and 100 nM […]
(B) Representative current traces for t he activation
(C) On- and off-r at e constants and Ki
Observed on- r at es kobs were determined by fitting the data (Fig. 4H, Supplementary Fig. 10A) to the function: % response = (100- Plateau)*exp(-kobs*time)+Plateau and plotted against the antagonist concentrations to obtain koff according to k obs=kon*F+koff. Assuming a (simplified) 1:1 binding model, of f-r at e constant koff and Ki values were estimated using the previous formulas as well as Ki=koff/kon. […]
determined by Ca2+ imaging (18 nM, Fig. 3B ) and the binding equilibrium reached at each […]
values of UB-MBX-46 c annot reflect an accurate value due to the nearly negligible dissociation on the timescale of the experiment. If k off was estimated based on the IC50 value (IC50 = koff/kon panel D), a more accurate koff value can be obtained. Numbers in square brackets are 95% Confidence Intervals. *values obtained from an extrapolated dose inhibition curve from D . (D) The plateau values, representing the binding equilibrium, were used to generate dose inhibition

[3] abbreviates: antagonist concentration 3.2 (unit not given).
Where [4] appears, read: antagonist concentration 16 (unit not given).
[5] abbreviates: antagonist concentration 80 (unit not given).
Where [6] appears, read: antagonist concentration 400 (unit not given).
Where [7] appears, read: antagonist concentration 2000 (unit not given).
Where [8] appears, read: antagonist concentration 10000 (unit not given).
Where [9] appears, read: antagonist concentration 100 (unit not given).
Setting [10] is: antagonist concentration 1000 (unit not given).

The term IC50 denotes the concentration at which inhibition is half-maximal. Read a low IC50 as greater potency in that assay. Regarding `CC12CC3CC(C)(C1)CC(C(=O)NNc1ccccc1Cl)(C3)C2` [UB-ALT-P36], the “mean % of maximum accumulation” value on hP2X7R [1] (setting [3]) is given as 75.2635%; on hP2X7R [1] (setting [4]), 81.0675%; at hP2X7R [1] (setting [5]), 68.3254%; at hP2X7R [1] (setting [6]), 62.0321%; at hP2X7R [1] (setting [7]), 5.603%; at hP2X7R [1] (setting [8]), -3.752%. Moreover, the midpoint of inhibition against hP2X7R [1], the IC50, lay at 477 ± 170 nM. The ΔΔGexp on hP2X7R [1] was 1.43 ± 1.93 kcal/mol. Moreover, the “MAX100 (% of maximum accumulation, replicates 1-3)” value is 66.4908 and 84.0361 on hP2X7R [1] (setting [3]); 77.5726 and 94.2771 and 71.3528 at hP2X7R [1] (setting [4]); 56.9921 and 86.4458 and 61.5385 at hP2X7R [1] (setting [5]); 60.1583 and 61.747 and 64.191 on hP2X7R [1] (setting [6]); 0.7916 and 7.53 and 8.488 on hP2X7R [1] (setting [7]); -6.86 and -5.723 and 1.326 at hP2X7R [1] (setting [8]).

As to `CC12CC3(C)CC(C)(C1)CC(C(=O)NNc1ccccc1Cl)(C2)C3` [UB-ALT-P37], on hP2X7R [1] (setting [9]), the “mean % of maximum accumulation” value is 69.1292%; the “MAX100 (% of maximum accumulation, replicates 1-3)” value was 71.3983 and 82.2055 and 53.7838. Moreover, at hP2X7R [1] (setting [10]), the “mean % of maximum accumulation” value came to 66.8307%; the “MAX100 (% of maximum accumulation, replicates 1-3)” value is 82.6271 and 51.3784 and 66.4865. Also, on hP2X7R [1] (setting [8]), the “mean % of maximum accumulation” value is 5.192%; the “MAX100 (% of maximum accumulation, replicates 1-3)” value is 17.7966 and 0.7519 and -2.973. At hP2X7R [1], this molecule returned an IC50 above 1000 nM and a ΔΔGexp above 1.88 kcal/mol.

On to `O=C(NNc1ccccc1Cl)C12CC3CC(CC(C3)C1)C2` [UB-MALT-P30], for which the “on-rate to hP2X7R, Response [%]” value at hP2X7R [2] (3 nM, time 2 min) was 96.4% and 100% and 92.9%; on hP2X7R [2] (3 nM, time 4 min), 96.4% and 97.5% and 92.9%; on hP2X7R [2] (3 nM, time 6 min), 96.4% and 97.5% and 92.9%; at hP2X7R [2] (10 nM, time 2 min) it was 93.8% and 78.8% and 87.9% and 77.9% and 84.1% and 80.6% and 76.1%; at hP2X7R [2] (10 nM, time 4 min) it was 83.3% and 71.2% and 77.8% and 75.3% and 77.2% and 75% and 67.4%; at hP2X7R [2] (10 nM, time 6 min) it was 77.1% and 65.4% and 72.7% (2×) and 74% and 66.7% and 65.2%. Further, the “on-rate to hP2X7R, Response [%]” value on hP2X7R [2] (10 nM, time 8 min) was 58.3% and 61.5% and 69.7% and 72.7% (2×) and 66.7% and 63%; on hP2X7R [2] (10 nM, time 10 min), 45.8% and 57.7% and 67.7% and 72.7% (2×) and 66.7% and 65.2%; on hP2X7R [2] (10 nM, time 12 min) it was 39.6% and 55.8% and 65.7% and 72.7% (2×) and 66.7% and 65.2%; on hP2X7R [2] (30 nM, time 2 min), 54.3% and 59.3% and 51.2% and 37.5% and 42.9% and 45.7% and 46.9%; on hP2X7R [2] (30 nM, time 4 min), 45.7% and 44.4% and 19.5% and 33.3% (2×) and 34.3%; on hP2X7R [2] (30 nM, time 6 min) it was 42.4% and 37% and 17.1% and 20.8% and 28.6% and 25.7% and 28.3%. Besides, the “on-rate to hP2X7R, Response [%]” value at hP2X7R [2] (30 nM, time 8 min) was 40.2% and 33.3% and 14.6% and 20.8% and 23.8% and 22.9% and 22.4%; on hP2X7R [2] (30 nM, time 10 min) it was 39.1% and 33.3% and 9.8% and 29.2% and 23.8% and 22.9% and 22.4%; on hP2X7R [2] (100 nM, time 2 min) it was 20% and 4.2% and 3.2% and 8.2% and 20.5% and 17.6% and 21.1%; at hP2X7R [2] (100 nM, time 4 min), 6.7%; at hP2X7R [2] (100 nM, time 6 min) it was 6.7% and 1.4% and 0% and 2% and 10.8% and 10.6% and 10.5%.
